Experimental data: PubChem BioAssay AID1963828 (Molecular Pharmacology Branch, DTP, NCI, 2024)
pIC50: −log10 of the molar value.

Test system: 991263-137-R1-J2-PDC complex spheroid viability
Experiment: Anticancer human tumor 991263-137-R1-J2-PDC patient-derived colon adenocarcinoma cell line growth inhibition [POLQ]
Conditions: for pIC50: curve of first compound; for viability, T/C: stronger effect = lower value
Summary of the method: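 Growth inhibition in 3D: complex spheroids (tumor PDC, HUVEC, MSC) treated with POLQ inhibitor combinations; where Cmax unknown, highest tested concentration 10 microM, except SN-38 at 1 microM.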

[1] = second compound 0.0316 µM, first compound 0.0316 µM
[2] = second compound 0.0316 µM, first compound 0.1 µM
[3] = second compound 0.0316 µM, first compound 0.316 µM
[4] = second compound 0.0316 µM, first compound 1 µM
[5] = second compound 0.0316 µM, first compound 3.16 µM
[6] = second compound 0.0316 µM, first compound 10 µM
[7] = second compound 0.1 µM, first compound 0.0316 µM
[8] = second compound 0.1 µM, first compound 0.1 µM
[9] = second compound 0.1 µM, first compound 0.316 µM
[10] = second compound 0.1 µM, first compound 1 µM
[11] = second compound 0.1 µM, first compound 3.16 µM
[12] = second compound 0.1 µM, first compound 10 µM
[13] = second compound 0.316 µM, first compound 0.0316 µM
[14] = second compound 0.316 µM, first compound 0.1 µM
[15] = second compound 0.316 µM, first compound 0.316 µM
[16] = second compound 0.316 µM, first compound 1 µM
[17] = second compound 0.316 µM, first compound 3.16 µM
[18] = second compound 0.316 µM, first compound 10 µM
[19] = second compound 1 µM, first compound 0.0316 µM
[20] = second compound 1 µM, first compound 0.1 µM
[21] = second compound 1 µM, first compound 0.316 µM
[22] = second compound 1 µM, first compound 1 µM
[23] = second compound 1 µM, first compound 3.16 µM
[24] = second compound 1 µM, first compound 10 µM
[25] = second compound 3.16 µM, first compound 0.0316 µM
[26] = second compound 3.16 µM, first compound 0.1 µM
[27] = second compound 3.16 µM, first compound 0.316 µM
[28] = second compound 3.16 µM, first compound 1 µM
[29] = second compound 3.16 µM, first compound 3.16 µM
[30] = second compound 3.16 µM, first compound 10 µM
[31] = second compound 10 µM, first compound 0.0316 µM
[32] = second compound 10 µM, first compound 0.1 µM
[33] = second compound 10 µM, first compound 0.316 µM
[34] = second compound 10 µM, first compound 1 µM
[35] = second compound 10 µM, first compound 3.16 µM
[36] = second compound 10 µM, first compound 10 µM
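Note: spheroids exposed to compounds for 7 days before readout.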
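Throughout, for viability, T/C: 100% = DMSO vehicle control viability.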

Work on `CCc1cc2c(N3CCc4c(cc(Cn5ccnc5)cc4-c4cn(C)nc4C(F)(F)F)C3=O)ccnc2c(OC)n1` + Nc1ccc(C#CCN(C(=O)Cc2ncc(C(F)(F)F)cc2C(F)(F)F)c2ccc(F)cc2)nn1 yielded a pIC50 (second compound 0.0316 µM) of less than 5.00, a pIC50 (second compound 0.1 µM) of less than 5.00 and a pIC50 (second compound 0.316 µM) of less than 5.00. For the same molecule, the pIC50 (second compound 1 µM) was less than 5.00, the pIC50 (second compound 3.16 µM) was less than 5.00 and the pIC50 (second compound 10 µM) was less than 5.00. For the same molecule, the viability, T/C [1] was 118%, the viability, T/C [2] was 109% and the viability, T/C [3] was 101%. The viability, T/C [4] was 92.2%, the viability, T/C [5] was 91.5% and the viability, T/C [6] was 88.7%. For the same molecule, the viability, T/C [7] was 97.1%, the viability, T/C [8] was 103% and the viability, T/C [9] was 108%. It also gave a viability, T/C [10] of 101%, a viability, T/C [11] of 96% and a viability, T/C [12] of 90.2%. The viability, T/C [13] was 107%, the viability, T/C [14] was 99.8% and the viability, T/C [15] was 106%. The viability, T/C [16] was 111%, the viability, T/C [17] was 103% and the viability, T/C [18] was 79.3%. It also gave a viability, T/C [19] of 95.1%, a viability, T/C [20] of 107% and a viability, T/C [21] of 108%. The viability, T/C [22] was 91.9%, the viability, T/C [23] was 97.4% and the viability, T/C [24] was 95.7%. For the same molecule, the viability, T/C [25] was 116%, the viability, T/C [26] was 112% and the viability, T/C [27] was 87%. For the same molecule, the viability, T/C [28] was 101%, the viability, T/C [29] was 95.3% and the viability, T/C [30] was 89.6%. It also gave a viability, T/C [31] of 95.1%, a viability, T/C [32] of 102% and a viability, T/C [33] of 107%. It also gave a viability, T/C [34] of 89.8%, a viability, T/C [35] of 86.4% and a viability, T/C [36] of 82.9%.
Molecule `COc1cc2cc(C(=O)CCC(=O)O)sc2cc1OC` + Nc1ccc(C#CCN(C(=O)Cc2ncc(C(F)(F)F)cc2C(F)(F)F)c2ccc(F)cc2)nn1 has a pIC50 (second compound 0.0316 µM) of less than 5.00, a pIC50 (second compound 0.1 µM) of less than 5.00 and a pIC50 (second compound 0.316 µM) of less than 5.00. It also gave a pIC50 (second compound 1 µM) of less than 5.00, a pIC50 (second compound 3.16 µM) of less than 5.00 and a pIC50 (second compound 10 µM) of less than 5.00. For the same molecule, the viability, T/C [1] was 115%, the viability, T/C [2] was 108% and the viability, T/C [3] was 111%. The viability, T/C [4] was 116%, the viability, T/C [5] was 87.9% and the viability, T/C [6] was 84.8%. It also gave a viability, T/C [7] of 116%, a viability, T/C [8] of 115% and a viability, T/C [9] of 95.8%. For the same molecule, the viability, T/C [10] was 98.7%, the viability, T/C [11] was 113% and the viability, T/C [12] was 93.8%. For the same molecule, the viability, T/C [13] was 97.1%, the viability, T/C [14] was 105% and the viability, T/C [15] was 102%. For the same molecule, the viability, T/C [16] was 104%, the viability, T/C [17] was 95% and the viability, T/C [18] was 77.5%. The viability, T/C [19] was 107%, the viability, T/C [20] was 103% and the viability, T/C [21] was 108%. The viability, T/C [22] was 96.8%, the viability, T/C [23] was 104% and the viability, T/C [24] was 86.6%. The viability, T/C [25] was 106%, the viability, T/C [26] was 99.6% and the viability, T/C [27] was 105%. It also gave a viability, T/C [28] of 103%, a viability, T/C [29] of 105% and a viability, T/C [30] of 88.2%. It also gave a viability, T/C [31] of 101%, a viability, T/C [32] of 96.6% and a viability, T/C [33] of 112%. It also gave a viability, T/C [34] of 94.7%, a viability, T/C [35] of 107% and a viability, T/C [36] of 82.1%.
Work on `O=C(Nc1ccc(O)c(NS(=O)(=O)c2ccc(F)cc2)c1)c1ccc(-c2ccccc2)cc1` + Nc1ccc(C#CCN(C(=O)Cc2ncc(C(F)(F)F)cc2C(F)(F)F)c2ccc(F)cc2)nn1 yielded a pIC50 (second compound 0.0316 µM) of less than 5.00, a pIC50 (second compound 0.1 µM) of less than 5.00 and a pIC50 (second compound 0.316 µM) of less than 5.00. The pIC50 (second compound 1 µM) was less than 5.00, the pIC50 (second compound 3.16 µM) was less than 5.00 and the pIC50 (second compound 10 µM) was less than 5.00. For the same molecule, the viability, T/C [1] was 97.7%, the viability, T/C [2] was 108% and the viability, T/C [3] was 107%. For the same molecule, the viability, T/C [4] was 104%, the viability, T/C [5] was 119% and the viability, T/C [6] was 100%. The viability, T/C [7] was 111%, the viability, T/C [8] was 97.5% and the viability, T/C [9] was 108%. The viability, T/C [10] was 107%, the viability, T/C [11] was 107% and the viability, T/C [12] was 107%. For the same molecule, the viability, T/C [13] was 101%, the viability, T/C [14] was 105% and the viability, T/C [15] was 107%. It also gave a viability, T/C [16] of 105%, a viability, T/C [17] of 114% and a viability, T/C [18] of 101%. For the same molecule, the viability, T/C [19] was 96.2%, the viability, T/C [20] was 100% and the viability, T/C [21] was 104%. The viability, T/C [22] was 105%, the viability, T/C [23] was 97.2% and the viability, T/C [24] was 102%. The viability, T/C [25] was 107%, the viability, T/C [26] was 108% and the viability, T/C [27] was 95.7%. It also gave a viability, T/C [28] of 109%, a viability, T/C [29] of 97.4% and a viability, T/C [30] of 95.3%. For the same molecule, the viability, T/C [31] was 102%, the viability, T/C [32] was 110% and the viability, T/C [33] was 94.5%. The viability, T/C [34] was 104%, the viability, T/C [35] was 92.5% and the viability, T/C [36] was 101%.
